Assay results as given in patent publication US8470983B2, “L-sugar colon cleansing agent and uses thereof” (Aptalis Pharma Canada Inc., priority 2009, dated 2013).

Key:
[1] = Comparative Example 2: randomized, single-blind study of L-glucose as bowel preparation before colonoscopy (GPA scale); format: in vivo, human
Description: (§1) Global Preparation Assessment
(§2) Excellent=clean colon or small volume of clear liquid
(§3) Good=moderate to large volume of clear to semiclear liquid
(§4) Fair=some semisolid stool suctioned or washed away
(§5) Poor=semisolid or solid stool unable to be suctioned or washed away
A randomized, single-blind study designed to determine the clinical effectiveness of L-glucose as a bowel preparation before colonoscopy was performed. Three dose regimens were evaluated: 24 g in the evening only, 30 g in the evening only, and 24 g in the evening followed by 12 g in the morning (36 g total). Here, Applicant's GPA scale described herein was used to evaluate the preparations. […] Clinical efficacy (defined as a combination of “excellent” and “good” assessments) for the split-dose schedule was 19/27 (70%), as compared to 7/31 (23%) in the single-dose schedule (p<0.001).
As noted above in the description of Applicant's GPA scale, the criteria for determining whether a preparation was deemed “excellent” or “good” was respectively defined as “clean colon or small volume of clear liquid” or “moderate to large volume of clear to semi-clear liquid.” These criteria are more stringent than the rating system used by Raymer et al. discussed supra since Raymer's “excellent” and “good” ratings were respectively defined as “no more than small bits of adherent fecal fluid” and “small amounts of feces or fluid not interfering with the examination.” Thus, Raymer's “excellent” rating would likely not qualify as even a “good” rating in Applicant's GPA scale.

[2] = Example 3: open-label, 2-site dose-escalating split-dose study of L-glucose before colonoscopy (GPA and RSS); format: in vivo, human
From the text: Applicants have relied upon a combination of a categorical, 4-point scale and a numerical, segmental scoring system to assess bowel cleansing quality (Balaban et al. “Low volume bowel preparation for colonoscopy: randomized, endoscopist-blinded trial of liquid sodium phosphate versus tablet sodium phosphate,” Am J Gastroenterol 98:827-32, 2003). The basic 4-point scale, known as the Global Preparation Assessment (GPA), is essentially the same as the original scale used in the first randomized controlled trial of PHOSPHO-SODA™ as a bowel cleansing agent published in 1990 by Vanner, et al. (“A randomized prospective trial comparing oral sodium phosphate with standard polyethylene glycol-based lavage solution (Golytely) in the preparation of patients for colonoscopy,” Am J Gastroenterol 85:422-7, 1990). The numerical scoring system, known as the Residual Stool Score (RSS), is a continuously variable, averaged segmental scoring instrument that assesses both the amount and consistency of residual stool before suctioning (a measure of the cathartic activity of the bowel cleansing regimen) as well as the percent of the bowel wall seen after washing and cleansing (a measure of the ultimate endpoint for bowel preparation success). The two scales are shown below.
as §1, §2, §3, §4, §5
This open-label, 2-site study employed a dose-escalating design using 3 split doses of L-glucose (24 g/24 g, 36 g/36 g, and 48 g/48 g). The doses were administered the night before and the morning of a scheduled colonoscopy. The study was conducted in Phase I facilities to control for administration of L-glucose and adherence to the dietary and hydration regimen.
Three dose cohorts of 24 subjects were evenly divided between males and females for each cohort. Subjects who were scheduled to undergo an elective colonoscopy, who met the study entrance criteria, and who gave their consent to participate in the study were enrolled. […] Each subject observed a strict diet and hydration regimen as part of the study medication administration.
The site pharmacist prepared the L-glucose preparation based on the study medication preparation manual provided. Each subject, regardless of dose cohort, received the dose in 8 ounces of water, which was to be consumed within a 10-minute period. Dose cohorts proceeded in a dose-escalating fashion starting with the lowest dose (24 g/24 g) and escalated according to a dose escalation decision tree.
The physician performing the colonoscopy utilized Applicant's GPA scale to evaluate the quality of bowel preparation as before suctioning and washing.
The Residual Stool Score (RSS) described above was also used to assess bowel cleansing in each of the 5 segments of the bowel (rectum, descending colon, transverse colon, ascending colon, and cecum). As noted, assessments included the amount of stool present, the consistency of the stool, and the estimated percentage of the bowel wall visualized in each segment.
For reasons of inadequate bowel preparation, sections of the bowel that were not directly examined during colonoscopy were rated as “poor” on all three measures listed previously.
A total of 24 subjects were enrolled into each of the three dose cohorts. All 72 subjects were included in the intent-to-treat (ITT) and safety populations.

[3] = 24-g single dose; Raymer scale; cited from earlier work
[4] = 90-day dietary study of L-glucose; format: in vivo
Description: (§6) In preclinical studies, there was no metabolism of L-glucose in any mammalian species studied. […] The maximum tolerated dose in rats was determined to be 10% dietary level of L-glucose.

[5] = Comparative Example 1: multicenter, double-blind, dose-range-finding study of L-glucose as colon-cleansing agent before colonoscopy; format: in vivo, human; details: single doses 12 g, 16 g, 20 g, 24 g
Description: A multicenter, double-blind, dose-range-finding study to evaluate the effectiveness and safety of L-glucose as a colon-cleansing agent before colonoscopy was conducted. Doses used in this study were 12 g, 16 g, 20 g, and 24 g. The assessment of the preparations was based on the scale used in Hsu et al., “Meta-analysis and cost comparison of polyethylene glycol lavage versus sodium phosphate for colonoscopy preparation,” Gastrointestinal Endoscopy 48(3):276-282, 1998, wherein small bits of fecal material in the colon were allowed in an “Excellent” score.

[6] = design: species or system mice, rats, dogs, rabbits, and monkeys; details: in vivo
Description: as §6

[7] = Clinical studies of L-glucose absorption, elimination and tolerability; format: in vivo, human
[8] = Dissolution of L-glucose monohydrate versus anhydrous L-glucose in water with consumer-like stirring; format: physicochemical; details: for Time of stirring until sample fully dissolved: 53 g L-glucose monohydrate in 240 mL doubly distilled water; for Observation of undissolved solid / clumping / Appearance of final solution: 240 mL water
Description: The following describes methods for determining the increased dissolution rate of L-glucose monohydrate comprising compositions.
Each sample comprises approximately an equivalent amount of L-glucose on a weight basis. Carefully, to avoid agitation and mixing, doubly distilled water (240 mL) is added to each beaker. In one example, the solution is stirred immediately after addition of water. In a second example, the solutions are allowed to stand for 5 minutes before agitation. The stiffing was conducted in a manner duplicating the way a consumer is expected to stir a sample prior to use. The following Table summaries these experiments which were conducted in duplicate.

[9] = 24 g, 30 g, 24 g + 12 g regimens
[10] = Total of all three dose cohorts, ITT, N = 72
[11] = 5 min. delay before stirring, listed as L- glucose monohydrate^2, monohydrate
[12] = no delay before stirring, listed as L- glucose monohydrate^2, monohydrate

O=C[C@@H](O)[C@H](O)[C@@H](O)[C@@H](O)CO [L-glucose]
Outcome of evening-only dose arms ([1]; 24 g and 30 g evening-only doses): suspended for lack of effectiveness | Changes in laboratory test results [1, 9]: no clinically significant changes | Commonly reported adverse events [1, 9]: generally absent or mild | Overall tolerance to the bowel preparation [1, 9]: good or very good | Clinical efficacy (combination of excellent and good GPA assessments) ([1]; single-dose schedule (24 g or 30 g evening only), 7/31 subjects): 23% | Clinical efficacy (combination of excellent and good GPA assessments) ([1]; split-dose schedule: 24 g evening followed by 12 g morning, 19/27 subjects): 70% | Global Preparation Assessment, Max ([2]; 24 g/24 g cohort, ITT, n = 24): 4.00 | Global Preparation Assessment, Mean (SD) ([2]; 24 g/24 g cohort, ITT, n = 24): 3.29 (0.81) | Global Preparation Assessment, Median ([2]; 24 g/24 g cohort, ITT, n = 24): 3.50 | Global Preparation Assessment, Min ([2]; 24 g/24 g cohort, ITT, n = 24): 2.00 | Subjects with GPA Fair, number (percentage) ([2]; 24 g/24 g cohort, ITT, n = 24): 5 (20.8) | Subjects with GPA Good, number (percentage) ([2]; 24 g/24 g cohort, ITT, n = 24): 7 (29.2) | Subjects with GPA Poor, number (percentage) ([2]; 24 g/24 g cohort, ITT, n = 24): 0 (0.0) | Global Preparation Assessment, Max ([2]; 36 g/36 g cohort, ITT, n = 24): 4.00 | Global Preparation Assessment, Median ([2]; 36 g/36 g cohort, ITT, n = 24): 4.00 | Global Preparation Assessment, Min ([2]; 36 g/36 g cohort, ITT, n = 24): 1.00 | Subjects with GPA Fair, number (percentage) ([2]; 36 g/36 g cohort, ITT, n = 24): 2 (8.3) | Subjects with GPA Good, number (percentage) ([2]; 36 g/36 g cohort, ITT, n = 24): 7 (29.2) | Global Preparation Assessment, Max ([2]; 48 g/48 g cohort, ITT, n = 24): 4.00 | Global Preparation Assessment, Median ([2]; 48 g/48 g cohort, ITT, n = 24): 4.00 | Global Preparation Assessment, Min ([2]; 48 g/48 g cohort, ITT, n = 24): 2.00 | Subjects with GPA Fair, number (percentage) ([2]; 48 g/48 g cohort, ITT, n = 24): 1 (4.2) | Subjects with GPA Good, number (percentage) ([2]; 48 g/48 g cohort, ITT, n = 24): 1 (4.2) | Subjects with GPA Poor, number (percentage) ([2]; 48 g/48 g cohort, ITT, n = 24): 0 (0.0) | Efficacy compared among the three split doses ([2]; 48 g/48 g dose): greatest efficacy | Time to the first watery bowel movement, compared among doses ([2]; 48 g/48 g dose): shortest time to the first watery bowel movement | GPA, mean (SD) ([2]; Site 01, all dose cohorts): 3.68 (0.75) | Subjects who had a complete colonoscopy, number (percentage) ([2]; Site 01, all dose cohorts): 30 (96.8%) | Subjects with GPA rated poor, number (percentage) ([2]; Site 01, all dose cohorts): 1 (3.2%) | Subjects with GPA rated excellent ([2]; Site 01, all dose cohorts, 25 subjects): 80.7% | GPA, mean (SD) ([2]; Site 02, all dose cohorts): 3.41 (0.74) | Subjects who had a complete colonoscopy, number (percentage) ([2]; Site 02, all dose cohorts): 39 (95.1%) | Subjects with GPA rated excellent ([2]; Site 02, all dose cohorts, 23 subjects): 56.1% | Global Preparation Assessment, Max [2, 10]: 4.00 | Global Preparation Assessment, Mean (SD) [2, 10]: 3.53 (0.75)^ | Global Preparation Assessment, Median [2, 10]: 4.00 | Global Preparation Assessment, Min [2, 10]: 1.00 | Subjects with GPA Excellent, number (percentage) [2, 10]: 48 (66.7) | Subjects with GPA Fair, number (percentage) [2, 10]: 8 (11.1) | Subjects with GPA Good, number (percentage) [2, 10]: 15 (20.8) | Subjects with GPA Poor, number (percentage) [2, 10]: 1 (1.4) | Subjects who had a complete colonoscopy (to the level of the cecum), number (percentage) ([2]; in each dose cohort (24 g/24 g, 36 g/36 g, 48 g/48 g)): 23 (95.8%) | Subjects with colonoscopy preparation grade of excellent or good [3]: 80% | Toxicity from continuous administration ([4]; rat, in vivo): no overt evidence of toxicity | Maximum tolerated dose ([4]; rats): 10 % dietary level | Acceptability as a colonic cleanser [5]: not acceptable | Effect of food restriction on metabolism [6]: no significant effect | Major route of elimination [6]: urinary excretion | Metabolism of L-glucose [6]: no metabolism | Metabolism by colonic bacteria ([7]; breath hydrogen in humans, comparable with in vitro studies): colonic bacteria do not metabolize L-glucose | Absorption from the intestine ([7]; human, in vivo): moderately absorbed | Glucose or insulin response after administration ([7]; human, in vivo): No significant glucose or insulin response | Lower gastrointestinal symptoms (cramping, gas/flatus) ([7]; human, in vivo): occurred in a majority of subjects, but symptoms were mild | Major routes of elimination ([7]; human, in vivo): fecal and urinary excretion | Mild upper gastrointestinal symptoms (vomiting, nausea, belching/rifting, bloating) ([7]; human, in vivo): occurred in a minority of subjects

O.O=C[C@@H](O)[C@H](O)[C@@H](O)[C@@H](O)CO [L-glucose monohydrate]
Time of stirring until sample fully dissolved ([8]; 5 min. delay before stirring, listed as L- glucose monohydrate^1, monohydrate): Sample fully dissolved after 2.5 min. of stirring. | Time of stirring until sample fully dissolved [8, 11]: Fully dissolved after 1 min. of stirring. Final | Time of stirring until sample fully dissolved ([8]; no delay before stirring, listed as L- glucose monohydrate^1, monohydrate): Sample fully dissolved after 2.5 min. of stirring. | Time of stirring until sample fully dissolved [8, 12]: Fully dissolved after 2 min. of stirring. Final | Observation of undissolved solid / clumping ([8]; 5 min. delay before stirring): Several clusters of solid at 1 min. Final solution | Appearance of final solution [8, 11]: solution was clear, colorless and homogeneous | Observation of undissolved solid / clumping ([8]; no delay before stirring): Several clusters of solid at 1 min. Final solution | Appearance of final solution [8, 12]: solution was clear, colorless and homogeneous
